pIC50: −log10 of the molar value.
Target: human full length recombinant Mps-1 kinase (Homo sapiens (Human), UniProt P33981)
Experiment: Mps-1 Kinase Assay (TR-FRET)
Assay type: biochemical
Settings: 10 μM ATP, 1 μM biotinylated peptide substrate, 60 min at 22° C., read-out: Mps-1 Inhibition, IC50 in M
Method in brief: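 GST-tagged full-length recombinant Mps-1 at about 1 nM final, adjusted per lot for linear range, phosphorylated a biotinylated peptide. Product bound Eu-anti-phospho(Ser/Thr) antibody over 1 h at 22° C and was read by TR-FRET to streptavidin-XLent. Compounds scored for kinase inhibition.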

Sequence of human full length recombinant Mps-1 kinase (P33981 whole entry): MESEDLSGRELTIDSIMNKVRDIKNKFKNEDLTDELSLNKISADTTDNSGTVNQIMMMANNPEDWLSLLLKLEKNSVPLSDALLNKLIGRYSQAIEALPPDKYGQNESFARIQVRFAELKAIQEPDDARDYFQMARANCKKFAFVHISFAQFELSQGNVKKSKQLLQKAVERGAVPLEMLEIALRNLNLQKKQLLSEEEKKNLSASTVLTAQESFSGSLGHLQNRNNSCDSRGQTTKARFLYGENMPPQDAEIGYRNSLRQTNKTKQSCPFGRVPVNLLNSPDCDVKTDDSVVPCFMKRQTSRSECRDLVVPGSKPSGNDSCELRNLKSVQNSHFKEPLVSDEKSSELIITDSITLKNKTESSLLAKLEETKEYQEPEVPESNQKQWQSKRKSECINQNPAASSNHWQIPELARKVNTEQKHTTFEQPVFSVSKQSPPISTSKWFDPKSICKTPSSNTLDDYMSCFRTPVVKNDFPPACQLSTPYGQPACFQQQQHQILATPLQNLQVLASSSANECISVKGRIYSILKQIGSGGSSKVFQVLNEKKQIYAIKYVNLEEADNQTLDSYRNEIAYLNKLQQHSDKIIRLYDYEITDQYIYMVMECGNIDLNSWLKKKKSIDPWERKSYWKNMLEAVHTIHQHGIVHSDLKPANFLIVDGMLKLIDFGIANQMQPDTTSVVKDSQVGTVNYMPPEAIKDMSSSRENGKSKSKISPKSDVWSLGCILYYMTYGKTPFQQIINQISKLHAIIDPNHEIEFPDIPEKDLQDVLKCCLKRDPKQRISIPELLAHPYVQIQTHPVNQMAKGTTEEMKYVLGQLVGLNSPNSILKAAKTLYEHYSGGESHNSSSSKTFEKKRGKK

Row | pIC50 | Compound
1 | ≥ 9.00 | COc1cc(C(=O)N2CCOCC2)ccc1Nc1nc2ccc(-c3ccc(C(=O)NCc4ccc(C)cc4)cc3)cn2n1 [Example 05.02, 4-(2-{[2-methoxy-4-(morpholin-4-ylcarbonyl)phenyl]amino}[,2]-triazolo[1,5-a]pyridin-6-yl)-N-(4-methylbenzyl)benzamide]
2 | ≥ 9.00 | COc1cc(C(=O)N2CCOCC2)ccc1Nc1nc2ccc(-c3ccc(C(=O)NCc4ccc(F)cc4)c(F)c3)cn2n1 [Example 06.01, 2-fluoro-N-(4-fluorobenzyl)-4-(2-{[2-methoxy-4-(morpholin-4-ylcarbonyl)phenyl]amino}[,2]-triazolo[1,5-a]pyridin-6-yl)benzamide]
3 | ≥ 9.00 | COc1cc(CN2CCOCC2)ccc1Nc1nc2ccc(-c3ccc(C(=O)NCc4ccc(F)cc4)c(F)c3)cn2n1 [Example 06.02, 2-fluoro-N-(4-fluorobenzyl)-4-(2-{[2-methoxy-4-(morpholin-4-ylmethyl)phenyl]amino}[,2]-triazolo[1,5-a]pyridin-6-yl)benzamide]
4 | ≥ 9.00 | COc1cc(C(=O)N2CCOCC2)ccc1Nc1nc2ccc(-c3ccc(C(=O)NCc4ccc(F)cc4)c(C)c3)cn2n1 [Example 07.01, N-(4-fluorobenzyl)-4-(2-{[2-methoxy-4-(morpholin-4-ylcarbonyl)phenyl]amino}[,2]-triazolo[1,5-a]pyridin-6-yl)-2-methylbenzamide]
5 | 8.96 | COc1cc(N2CCOC2=O)ccc1Nc1nc2ccc(-c3ccc(C(=O)NCc4ccc(F)cc4)c(C)c3)cn2n1 [Example 07.02, N-(4-fluorobenzyl)-4-(2-{[2-methoxy-4-(2-oxo-1,3-oxazolidin-3-yl)phenyl]amino}[,2]-triazolo[1,5-a]pyridin-6-yl)-2-methylbenzamide]
6 | ≥ 9.00 | COc1cc(C(=O)N2CCOCC2)ccc1Nc1nc2ccc(-c3ccc(C(=O)NCc4ccc(F)cc4)c(Cl)c3)cn2n1 [Example 08.01, 2-chloro-N-(4-fluorobenzyl)-4-(2-{[2-methoxy-4-(morpholin-4-ylcarbonyl)phenyl]amino}[,2]-triazolo[1,5-a]pyridin-6-yl)benzamide]
7 | ≥ 9.00 | COc1cc(C(=O)N2CCOCC2)ccc1Nc1nc2ccc(-c3ccc(C(=O)NCc4ccc(F)cc4)c(OC)c3)cn2n1 [Example 09.01, N-(4-fluorobenzyl)-2-methoxy-4-(2-{[2-methoxy-4-(morpholin-4-ylcarbonyl)phenyl]amino}[,2]-triazolo[1,5-a]pyridin-6-yl)benzamide]
8 | ≥ 9.00 | COc1cc(C(=O)N2CCOCC2)ccc1Nc1nc2ccc(-c3ccc(NC(=O)Cc4ccc(F)cc4)c(F)c3)cn2n1 [Example 10.01, N-[2-fluoro-4-(2-{[2-methoxy-4-(morpholin-4-ylcarbonyl)phenyl]amino}[,2]-triazolo[1,5-a]pyridin-6-yl)phenyl]-2-(4-fluorophenyl)acetamide]
9 | 8.79 | COc1cc(C(=O)N2CCOCC2)ccc1Nc1nc2ccc(-c3ccc(NC(=O)Cc4ccc(F)cc4)nc3)cn2n1 [Example 11.01, 2-(4-fluorophenyl)-N-[5-(2-{[2-methoxy-4-(morpholin-4-ylcarbonyl)phenyl]amino}[,2]triazolo[1,5-a]pyridin-6-yl)pyridin-2-yl]acetamide]
10 | ≥ 9.00 | CCOc1cc(C(=O)N2CCOCC2)ccc1Nc1nc2ccc(-c3ccc(NC(=O)Cc4ccc(F)cc4)nc3)cn2n1 [Example 11.02, N-[5-(2-{[2-ethoxy-4-(morpholin-4-ylcarbonyl)phenyl]amino}[,2]triazolo[1,5-a]pyridin-6-yl)pyridin-2-yl]-2-(4-fluorophenyl)acetamide]
11 | ≥ 9.00 | COc1cc(N2CCOC2=O)ccc1Nc1nc2ccc(-c3ccc(C(=O)NCc4ccc(F)cc4F)c(C)c3)cn2n1 [Example 12.01, N-(2,4-difluorobenzyl)-4-(2-{[2-methoxy-4-(2-oxo-1,3-oxazolidin-3-yl)phenyl]amino}[,2]triazolo[1,5-a]pyridin-6-yl)-2-methylbenzamide]

From patent US9555022B2, “Substituted triazolopyridines” (Bayer Intellectual Property GmbH, priority 2010, dated 2017)
